In brackets after ≈: the same amount, converted by molar mass. Where two headings read alike, the source gives them in different places.
Legend:
[1] = test system: S. aureus; assay: In vitro antibacterial activity (MIC), S. aureus; type: cell-based, Staphylococcus Aureus; conditions: for MIC: S. aureus (12 strains)
Method: Strains: strain ATCC25923 is available from the American Type Culture Collection, and is used as a standard strain of Staphylococcus Aureus;
Liquid medium: MH bouillon culture medium, a product of BD Company, United States of American;
Tested Compounds: compounds 12a, 13 and 14 prepared according to the methods above, and Linezolid purchased from Pfizer.
(§1) The test strain was inoculated into the liquid medium and cultured at 37° C. for 16-18 h. The culture liquid and MH medium were put into two blank wells of a 96-well plate, respectively. Then, the absorptions thereof were measured by a Microplate reader. The difference between the absorption values of the culture liquid and MH medium is the adsorption of the bacteria. The concentration of the culture liquid can be calculated according to the formula of 1OD=50 million CFU/mL. The culture liquid was diluted with the MH bouillon culture medium to 5000 CFU/mL for further use.
(§2) Compounds 12a, 13 and 14 were dissolved in DMSO to 1 mg/mL, and then filtered with a 0.22 μm filter to obtain the compound solutions. And then they were gradually diluted to a desired concentration (10× final concentration) with the liquid medium, so as to obtain a series of dilutions. The final concentration grade of the dilutions of each tested compound consists of 14 concentrations, which includes: 0.03125 μg/mL, […], 0.125 μg/mL, 0.25 μg/mL, […], 1 μg/mL, 2 μg/mL, 4 μg/mL, 8 μg/mL, 16 μg/mL, 32 μg/mL, 64 μg/mL, 128 μg/mL and 256 μg/mL.
(§3) 10 μL of each of the compound dilutions above was added into a well of a 96-well plate. 90 μL of the culture liquid (5000 CFU/mL) was added into each of the wells, respectively, mixed with the dilutions to render the tested compound concentration to the final concentration. The resulted mixture was incubated at 37° C. for 16-18 h, and then the OD630 thereof was measured. A culture liquid free of the tested compounds is used as a blank control, and three parallel tests with the same concentration of each compound were performed. The minimum inhibitory concentration (MIC) of each compound on the standard strain of Staphylococcus Aureus and other test strains was determined. Specifically, among the culture liquid contained in the wells of the micro-plate, the first three lowest concentrations under which growth of the test strains could be observed were chose for further evaluation of the MIC. A culture liquid free of tested compounds was used as a blank control. Each of the culture liquids was homogenized independently, and then was diluted with a sterile saline. Each of the diluted culture liquids was plated onto a MH bouillon plate and incubated at 37° C. for 20 h in incubator. After the incubation, the number of the colonies on each plate was counted. As compared with the blank control group, the lowest concentration of each of the test compound groups, at which 80% reduction in the colony number of the strains was achieved, was recorded as the MIC.

[2] = test system: E. faecalis; assay: In vitro antibacterial activity (MIC), E. faecalis; type: cell-based; conditions: E. faecalis (7 strains)
Method: as §1, §2, §3

[3] = test system: Enterococcus faecium-resistant vancomycin; assay: MIC against clinically isolated strains, vancomycin resistant Enterococcus faecium; type: cell-based; conditions: Enterococcus faecium-resistant vancomycin (12 strains)
Text: Standard strains, including Staphylococcus aureus ATCC29213, S. pneumoniae ATCC49619, E. faecalis ATCC29212, are all available from the American Type Culture Collection.
Clinically isolated strains: There are total 120 clinical strains of gram-positive bacterium including: 37 strains of Staphylococcus aureus (consisting of 14 strains of methicillin sensitive Staphylococcus aureus MSSA and 23 strains of methicillin resistant Staphylococcus aureus MRSA); 27 strains of Streptococcus pneumoniae (consisting of 13 strains of penicillin sensitive Streptococcus pneumoniae PSSP and 14 strains of penicillin insensitive or resistant Streptococcus pneumoniae PISP+PRSP); 15 strains of Streptococcus pyogenes; 17 strains of Streptococcus agalactiae; 24 stains of Enterococcus faecium (consisting of 12 strains of vancomycin sensitive Enterococcus faecium and 12 strains of vancomycin resistant Enterococcus faecium).
(2) Tested compounds: Compound 13f was prepared by the methods above, with potency of over 98%; Linezolid was purchased from Pfizer, with potency of 100%.
Staphylococcus and Enterococcus faecium were incubated in Mueller-Hinton agar medium (MHA medium) at 35° C. for 16-20 h; S. pneumoniae was incubated in Cation-Adjusted Mueller-Hinton Broth medium (CAMHB medium) supplemented with 2.5-5.5% (v/v) lysed horse blood (LHB) at 35° C. for 20-24 h; and Streptococcus were incubated in sheep blood-containing medium (prepared by addition of 5% defibrinated sheep blood into MHA media) at 35° C. for 20-24 h in 5% CO2 environment (CO2 incubator). Before test of the compound activity, each stock of the bacteria strains was activated and colonized in the following manner: the stock was transferred and cultured in a liquid culture medium, the culture liquid was smeared onto an agar plate with an inoculating loop to obtain bacterial colonies on the plate after incubation, and then a colony of the bacteria was chose to be suspended into the liquid culture medium for performing the test of compound activity. As a result, fresh bacteria cells were applied to the test. The standard strains were used as sensitive bacterium to control the quality of the experiments, and a plate or tube containing no antibacterial compounds is used as a blank control for the growth of test strains.
The minimal inhibitory concentration (MIC) of the test compounds on the strains of Streptococcus pneumoniae was determined by a standard broth macrodilution method, while the MIC of the test compounds on the other bacteria stains was determined by standard agar double dilution methods. The concentration of the test compounds was in the range of 32 mg/L-0.016 mg/L. The bacterial suspensions to be tested were inoculated by a multipoint inoculator, and the inoculation amount at each point is 10^4 CFU. The MIC of the test compound to each strain of the bacteria was determined.

[4] = test system: HEK-293; assay: Cytotoxicity experiment (MTT), HEK-293; type: cell-based; conditions: HEK-293 normal cells
Method: (1) Inoculating cells: Experimental cells in the growth of logarithmic phase were collected and suspended. The cell concentration of the suspension was adjusted so that they could be inoculated into the wells of 96-well micro plate at a density between 10^3-10^4 cells per well (200 μl per well). (2) Culturing cells: The cells were cultured at normal conditions for 3 days and then exposed to 50 uM compounds for test. (3) Coloring reaction: At 24 h, 48 h and 72 h after the cells being exposed to the compounds for test, 200 μl culture medium containing 20 μl MTT solution (5 mg/ml) was added into each well, and the well was further incubated at 37° C. for 2 hours to terminate the incubation. After the incubation, the supernatants were removed from the wells. In the event there were suspended cells in the wells, centrifugation should be performed before removal of supernatant from the wells. After the removal, 150 μl DMSO was added to each well and mixed thoroughly by agitation for 10 mins to fully dissolve crystals. (4) Ascertainment of colorimetry: The absorbance value at 490 nm of each well was determined by Enzyme-linked immunosorbent Monitor. The growth curve of the experimental cells was plotted by taking time as x-coordinate and absorbance value as y-coordinate. In addition, an inhibition ratio could be calculated in accordance with the following formula: Inhibition ratio=(absorbance value of control group-absorbance value of administering group)/absorbance value of control group×100%.

| Compound | MIC [1] | MIC [2] | MIC50 [3] | MIC90 [3] | MICmode [3] | MICrange [3] | Inhibition ratio ([4]; 50 uM, 48 h) | MIC ([1]; Staphylococcus aureus, read-out: MIC) | activity ranking among test compounds ([1]; Table 2: S. aureus, S. pneumoniae, S. agalactiae and E. faecalis) | MIC ([2]; Enterococcus faecalis, read-out: MIC) | cytotoxicity at 50 µM ([4]; Homo sapiens, HEK293, 48 h, read-out: Inhibition ratio) |
| --- | --- | --- | --- | --- | --- | --- | --- | --- | --- | --- | --- |
| CC(=O)NC[C@H]1CN(c2ccc(N3CCOCC3)c(F)c2)C(=O)O1 [Linezolid, reference compound] | 4 to 32 µg/mL | 4 to 32 µg/mL | 0.001 µg/mL (≈ 0.00296 µM) | 0.001 µg/mL (≈ 0.00296 µM) | 1 µg/L | 1 to 2 µg/L | >50% |  |  |  |  |
| CC(=O)NC[C@H]1CN(c2ccc(-n3cc(-c4ccccn4)cn3)c(F)c2)C(=O)O1 [Compound 13f, (S)-N-((3-(3-fluoro-4-(4-(pyridin-2-yl)-1H-pyrazol-1-yl)phenyl)-2-oxooxazolidin-5-yl)methyl)acetamide] |  |  |  |  | 1 µg/L | 1 to 2 µg/L |  | 0.25 to 2 µg/mL (≈ 0.632 to 5.06 µM) | most optimum activity | 0.5 to 2 µg/mL (≈ 1.26 to 5.06 µM) | 2.7% |
